Measured values published in US11065304B2, “Peptide pharmaceuticals for insulin resistance” (MEDERIS DIABETES, LLC, priority 2012, dated 2021).

Assays:
GLP-1 R [1] = target: T1, GLP-1 R (Homo sapiens, UniProt P43220); experiment: DiscoveRx LeadHunter cellular assay, arrestin activation, GLP-1 receptor; assay type: cell-based
Description: (§1) § means superagonist A further series of cellular assays were carried out using standard cellular assays (DiscoveRx, LeadHunter assays) using readout of cAMP stimulation or arrestin activation. Compounds were weighed precisely in an amount of approximately 1 mg and shipped to DiscoveRx for dilution and assay.

GLP-1 R [2] = target: T1, GLP-1 R; experiment: DiscoveRx LeadHunter cellular assay, cAMP stimulation, GLP-1 receptor; assay type: cell-based
Description: as §1

glucagon R = target: T2, glucagon R (Homo sapiens, UniProt P47871); experiment: DiscoveRx LeadHunter cellular assay, cAMP stimulation, glucagon receptor; assay type: cell-based
T2 construct: host or cells: CHO cells
T2 sequence (P47871 26-477): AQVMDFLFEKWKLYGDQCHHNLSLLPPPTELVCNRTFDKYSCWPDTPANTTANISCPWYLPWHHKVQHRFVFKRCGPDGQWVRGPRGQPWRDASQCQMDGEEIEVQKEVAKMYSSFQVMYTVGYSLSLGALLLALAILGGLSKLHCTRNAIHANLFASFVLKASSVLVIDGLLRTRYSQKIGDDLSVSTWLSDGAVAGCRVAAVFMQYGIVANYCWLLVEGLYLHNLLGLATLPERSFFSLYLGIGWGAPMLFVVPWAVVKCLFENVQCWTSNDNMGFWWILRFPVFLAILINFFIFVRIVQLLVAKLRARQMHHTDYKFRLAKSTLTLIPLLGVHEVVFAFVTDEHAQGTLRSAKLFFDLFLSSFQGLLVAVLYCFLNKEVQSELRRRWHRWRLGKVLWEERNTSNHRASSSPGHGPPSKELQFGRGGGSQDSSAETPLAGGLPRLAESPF
Description: as §1

db/db mice = experiment: In vivo assay in db/db mice (blood glucose, body weight, food consumption); details: for db/db mice - Mean Blood Glucose, 10 hr: 10 hr after first dose; for db/db mice - Mean Blood Glucose, 24 hr: 24 hr after first dose; for db/db mice - Mean Blood Glucose, 48 hr: 48 hr after first dose
Description: The 60 female db/db B6BKS (D) Leprdb/J (strain 000697) mice for this study were approximately 8 to 9 weeks old at arrival (Jackson Laboratory, Bar Harbor, Me.). […] One group of 8 female mice served as the vehicle control and received the vehicle, 0.2% BSA in saline, pH 7.4. One additional group of 8 female mice received the positive control article, liraglutide, at a dose level of 50 nmoles/kg. The test articles, vehicle, and positive control article were administered on Day 1, at approximately 0, 7, and 24 hours during the study via subcutaneous injection at a dose volume of 6 mL/kg.
Clinical observations were conducted at receipt, prior to randomization, and daily from Days 1 to 5. Body weights were measured and recorded at receipt, prior to randomization, and daily from Days 1 to 5. Food consumption was measured and recorded daily from Days 1 to 5. Blood samples for glucose analysis were collected pretest (Day −3) and at 0, 1, 2, 4, 8, 10, 24, 48, 72, and 96 hours following the first dose on Day 1. At study termination all animals were euthanized and the carcasses were discarded without further evaluation.

T1 sequence (P43220 24-463): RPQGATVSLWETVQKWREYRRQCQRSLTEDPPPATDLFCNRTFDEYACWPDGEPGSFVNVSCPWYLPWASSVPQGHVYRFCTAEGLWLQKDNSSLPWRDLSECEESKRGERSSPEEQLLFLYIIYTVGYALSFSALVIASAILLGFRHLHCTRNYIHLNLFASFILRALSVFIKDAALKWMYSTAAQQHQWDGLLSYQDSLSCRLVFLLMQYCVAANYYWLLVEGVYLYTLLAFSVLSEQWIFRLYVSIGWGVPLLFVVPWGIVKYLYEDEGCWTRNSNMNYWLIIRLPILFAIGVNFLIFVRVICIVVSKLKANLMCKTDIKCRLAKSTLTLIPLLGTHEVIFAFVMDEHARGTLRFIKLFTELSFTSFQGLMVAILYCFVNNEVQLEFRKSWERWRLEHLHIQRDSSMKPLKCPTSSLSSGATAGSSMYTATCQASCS

CCCCCCCCCCCCO[C@@H]1O[C@H](C(=O)NCCCC[C@H](NC(=O)[C@@H](NC(=O)[C@H](Cc2ccccc2)NC(=O)[C@H](CCC(=O)O)NC(=O)[C@@H]2CCCCNC(=O)CC[C@H](NC(=O)[C@H](CC(=O)O)NC(=O)[C@H](CC(C)C)NC(=O)[C@H](Cc3ccc(O)cc3)NC(=O)[C@H](CCCCN)NC(=O)[C@H](CO)NC(=O)[C@H](Cc3ccc(O)cc3)NC(=O)[C@H](CC(=O)O)NC(=O)[C@H](CO)NC(=O)[C@@H](NC(=O)[C@H](Cc3ccccc3)NC(=O)[C@@H](NC(=O)CNC(=O)[C@H](CCC(N)=O)NC(=O)C(C)(C)NC(=O)[C@@H](N)Cc3c[nH]cn3)[C@@H](C)O)[C@@H](C)O)C(=O)N[C@@H](CCC(N)=O)C(=O)N[C@@H](C)C(=O)N[C@@H](C)C(=O)N2)[C@@H](C)CC)C(=O)N[C@@H](Cc2c[nH]c3ccccc23)C(=O)N[C@@H](CC(C)C)C(=O)N[C@@H](CC(C)C)C(=O)N[C@@H](CCC(N)=O)C(=O)N[C@H](C(N)=O)[C@@H](C)O)[C@@H](O)[C@H](O)[C@H]1O [EU-A993, His1-Aib2-Gln3-Gly4-Thr5-Phe6-Thr7-Ser8-Asp9-Tyr10-Ser11-Lys12-Tyr13-Leu14-Asp15-Glu*16-Gln17 Ala18-Ala19-Lys*20-Glu21-Phe22-Ile23-Lys(N-omega(1-dodecylbeta-D-glucuronyl))24-Trp25-Leu26-Leu27-Gln28-Thr29-NH2]
EC50 (GLP-1 R [1]): 12.3 nM
EC50 (GLP-1 R [2]): < 0.05 nM
EC50 (glucagon R): < 0.05 nM
db/db mice - Mean Blood Glucose, 0 hr (db/db mice; 250 nmole/kg s.c.): 503 mg/dL
db/db mice - Mean Blood Glucose, 10 hr (db/db mice; 250 nmole/kg s.c.): 305 mg/dL
db/db mice - Mean Blood Glucose, 24 hr (db/db mice; 250 nmole/kg s.c.): 324 mg/dL
db/db mice - Mean Blood Glucose, 48 hr (db/db mice; 250 nmole/kg s.c.): 426 mg/dL

CCCCCCCCCCCCCCO[C@@H]1O[C@H](C(=O)NCCCC[C@H](NC(=O)[C@@H](NC(=O)[C@H](Cc2ccccc2)NC(=O)[C@H](CCC(=O)O)NC(=O)[C@@H]2CCCCNC(=O)CC[C@H](NC(=O)[C@H](CC(=O)O)NC(=O)[C@H](CC(C)C)NC(=O)[C@H](Cc3ccc(O)cc3)NC(=O)[C@H](CCCCN)NC(=O)[C@H](CO)NC(=O)[C@H](Cc3ccc(O)cc3)NC(=O)[C@H](CC(=O)O)NC(=O)[C@H](CO)NC(=O)[C@@H](NC(=O)[C@H](Cc3ccccc3)NC(=O)[C@@H](NC(=O)CNC(=O)[C@H](CCC(N)=O)NC(=O)C(C)(C)NC(=O)[C@@H](N)Cc3c[nH]cn3)[C@@H](C)O)[C@@H](C)O)C(=O)N[C@@H](CCC(N)=O)C(=O)N[C@@H](C)C(=O)N[C@@H](C)C(=O)N2)[C@@H](C)CC)C(=O)N[C@@H](Cc2c[nH]c3ccccc23)C(=O)N[C@@H](CC(C)C)C(=O)N[C@@H](CC(C)C)C(=O)N[C@@H](CCC(N)=O)C(=O)N[C@H](C(N)=O)[C@@H](C)O)[C@@H](O)[C@H](O)[C@H]1O [EU-A994, His1-Aib2-Gln3-Gly4-Thr5-Phe6-Thr7-Ser8-Asp9-Tyr10-Ser11-Lys12-Tyr13-Leu14-Asp15-Glu*16-Gln17 Ala18-Ala19-Lys*20-Glu21-Phe22-Ile23-Lys(N-omega(1-tetradecylbeta-D-glucuronyl))24-Trp25-Leu26-Leu27-Gln28-Thr29-NH2]
EC50 (GLP-1 R [1]): 10.2 nM
EC50 (GLP-1 R [2]): 0.05 nM
EC50 (glucagon R): < 0.05 nM
db/db mice - Mean Blood Glucose, 0 hr (db/db mice; 300 nmole/kg s.c.): 554 mg/dL
db/db mice - Mean Blood Glucose, 10 hr (db/db mice; 300 nmole/kg s.c.): 242 mg/dL
db/db mice - Mean Blood Glucose, 24 hr (db/db mice; 300 nmole/kg s.c.): 209 mg/dL
db/db mice - Mean Blood Glucose, 48 hr (db/db mice; 300 nmole/kg s.c.): 385 mg/dL
glucose levels versus vehicle (db/db mice; db/db mice, 10 and 24 hours, high dose (300 nmoles/kg)): significantly different from vehicle
food consumption versus Liraglutide (db/db mice; db/db mice, Day 1, high dose (300 nmoles/kg)): significantly different from Liraglutide
body weight changes against vehicle (db/db mice; db/db mice, Days 2 and 3, liraglutide 50 nmoles/kg, test articles high dose (300 nmoles/kg)): Significant body weight changes
